What was measured:
PI3K (p110α/p85α) = PI3K (p110α/p85α) (Homo sapiens (Human), UniProt P42336); test: PI3K alpha activity assay (ADP Hunter Plus); format: biochemical; conditions: 50 μM ATP, 30 μM PIP2; read-out: PI3Kα IC50
Protocol: The kinase activity was measured by using the commercial ADP Hunter™ Plus assay available from DiscoveRx (#33-016), which is a homogeneous assay to measure the accumulation of ADP, a universal product of kinase activity. […] The reaction was carried out for 1 hour at 25° C. Reagent A and B were sequentially added to the wells and plates were incubated for 30 min at 37° C. Fluorescence counts were read in a Victor instrument (Perkin Elmer) with the recommended settings (544 and 580 nm as excitation and emission wavelengths, respectively).

DNA-PK = DNA-PK (Homo sapiens (Human), UniProt P78527); test: DNAPK activity assay (ADP Hunter Plus); format: biochemical; conditions: 75 μM ATP
Protocol: The kinase activity was measured by using the commercial ADP Hunter™ Plus assay available from DiscoveRx (#90-0083), which is a homogeneous assay to measure the accumulation of ADP, a universal product of kinase activity. The enzyme, DNA-PK was purchased from Promega (#V5811). The assay was done following the manufacturer recommendations with slight modifications: Mainly the kinase buffer was replace by 15 mM HEPES, pH 7.5, 10 mM MgCl2, 20 mM NaCl, 1 mM EGTA, 0.1 mg/mL BGG, 0.02% Tween 20. The DNA-PK was assayed in a titration experiment to determine the optimal protein concentration for the inhibition assay. To calculate the […] of the Compounds, serial 1:3 dilutions of the compounds were added to the enzyme at a fixed concentration (2 U/μL). The enzyme was preincubated with the inhibitor and 200 μM DNA substrate and then ATP was added to a final 75 μM concentration. Reaction was carried out for 1 hour at 37° C. Reagent A and B were sequentially added to the wells and plates were incubated for 30 min at RT. Fluorescence counts were read in a EnVision instrument (Perkin Elmer) with the recommended settings (550 and 590 nm as excitation and emission wavelengths, respectively).

ATR = ATR (Homo sapiens (Human), UniProt Q13535); test: Cellular ATR inhibition, western blot of CHK1(S345) phosphorylation in hydroxyurea treated cells; format: cell-based; conditions: HT29 cells
Protocol: In addition to the selective system described above, Example compounds presented here were screened for their ability to inhibit intracellular ATR using a western blot assay to detect phosphorylation of the ATR substrate CHK1(S345) in hydroxyurea treated cells. HT29 cells are plated at 500,000 cells per well in 6-well plates in RPMI media (Sigma R6504) supplemented with 10% foetal bovine serum (Sigma F7524), Penicillin/Streptomycin solution diluted 1:100 (Gibco 15070-063), and fungizone (Gibco, 15290-018), and allowed to adhere overnight at 37° C. in 5% CO2. Compounds are then added to the cell media from a final concentration of 10 μM in 3-fold serial dilutions and the cells are incubated at 37° C. in 5% CO2. After 15 min, hydroxyurea (Sigma H8627) is added to a final concentration of 2.5 mM. After 30 min of treatment with hydroxyurea, the cells are washed in PBS, lysed adding 50 μl of in protein lysis buffer (50 mM Tris pH 7.5, 150 mM NaCl, 1% IGEPAL CO-630 (Sigma, Ref. 542334-100G-A), Phospho Stop (Roche, Ref. 04906837001) and Complete Mini EDTA free (Roche, Ref. 11836170001)). The protein content of the lysates was determined by the modified method of Bradford (Sigma, Ref. B6916). The proteins were resolved by SDS-PAGE and transferred to nitrocellulose membrane (VWR International Eurolab, Ref. 732-4007). The membranes were incubated overnight at 4° C. with antibodies specific for total CHK1 (Santa Cruz Biotechnology, sc-8404), phosphoserine-345 CHK1 (Cell Signaling Technology #2348) they were washed and then incubated with IRDye800 conjugated anti-mouse (Pierce/Cultek, 35521) and Alexa Fluor 680 goat anti-rabbit IgG secondary antibodies (Invitrogen, A21076). The bands were visualized and quantified using an Odyssey infrared imaging system (Li-Cor Biosciences). The percentage of phosphorylated CHK1 vs total CHK1 in cells treated with hydroxyurea was taken as hundred percent of phosphorylation. The percentage of CHK1 phosphorylation is finally plotted against concentration for each compound and EC50s for intracellular ATR inhibition are calculated using ActivityBase from IDBS.

mTOR = mTOR (Homo sapiens (Human), UniProt P42345); test: mTOR activity assay (LanthaScreen); format: biochemical
Protocol: The enzymatic mTOR activity was measured using a LanthaScreen™ kinase activity assay (Invitrogen). The enzyme was purchased from Invitrogen (PV4754), as well as the GFP-labelled substrate (4EBP1-GFP; PV4759) and the Tb-antip4EBP1(pThr46) antibody (PV4757). The assay was performed in 50 Mm HEPES buffer, pH 7.5, containing 1.5 mM MnCl2, 10 mM MgCl2, 1 mM EGTA, 2.5 mM DTT and 0.01% Tween-20. The concentration of the assay components were the following: 0.24 nM mTOR kinase, 400 nM 4EBP1-GFP, […] and serial dilutions of the compound (inhibitor) to be evaluated. After 1 h incubation at room temperature, 20 mM EDTA was used to stop the reaction and terbium-labelled antibody (4 nM) added to detect phosphorylated product. The antibody associates with the phosphorylated product resulting in an increased TR-FRET value. The TR-FRET value (a dimensionless number) was calculated as the ratio of the acceptor signal (GFP, emission at 520 nm) to the donor signal (terbium, emission at 495 nm).

Sequence of ATR (Q13535 whole entry): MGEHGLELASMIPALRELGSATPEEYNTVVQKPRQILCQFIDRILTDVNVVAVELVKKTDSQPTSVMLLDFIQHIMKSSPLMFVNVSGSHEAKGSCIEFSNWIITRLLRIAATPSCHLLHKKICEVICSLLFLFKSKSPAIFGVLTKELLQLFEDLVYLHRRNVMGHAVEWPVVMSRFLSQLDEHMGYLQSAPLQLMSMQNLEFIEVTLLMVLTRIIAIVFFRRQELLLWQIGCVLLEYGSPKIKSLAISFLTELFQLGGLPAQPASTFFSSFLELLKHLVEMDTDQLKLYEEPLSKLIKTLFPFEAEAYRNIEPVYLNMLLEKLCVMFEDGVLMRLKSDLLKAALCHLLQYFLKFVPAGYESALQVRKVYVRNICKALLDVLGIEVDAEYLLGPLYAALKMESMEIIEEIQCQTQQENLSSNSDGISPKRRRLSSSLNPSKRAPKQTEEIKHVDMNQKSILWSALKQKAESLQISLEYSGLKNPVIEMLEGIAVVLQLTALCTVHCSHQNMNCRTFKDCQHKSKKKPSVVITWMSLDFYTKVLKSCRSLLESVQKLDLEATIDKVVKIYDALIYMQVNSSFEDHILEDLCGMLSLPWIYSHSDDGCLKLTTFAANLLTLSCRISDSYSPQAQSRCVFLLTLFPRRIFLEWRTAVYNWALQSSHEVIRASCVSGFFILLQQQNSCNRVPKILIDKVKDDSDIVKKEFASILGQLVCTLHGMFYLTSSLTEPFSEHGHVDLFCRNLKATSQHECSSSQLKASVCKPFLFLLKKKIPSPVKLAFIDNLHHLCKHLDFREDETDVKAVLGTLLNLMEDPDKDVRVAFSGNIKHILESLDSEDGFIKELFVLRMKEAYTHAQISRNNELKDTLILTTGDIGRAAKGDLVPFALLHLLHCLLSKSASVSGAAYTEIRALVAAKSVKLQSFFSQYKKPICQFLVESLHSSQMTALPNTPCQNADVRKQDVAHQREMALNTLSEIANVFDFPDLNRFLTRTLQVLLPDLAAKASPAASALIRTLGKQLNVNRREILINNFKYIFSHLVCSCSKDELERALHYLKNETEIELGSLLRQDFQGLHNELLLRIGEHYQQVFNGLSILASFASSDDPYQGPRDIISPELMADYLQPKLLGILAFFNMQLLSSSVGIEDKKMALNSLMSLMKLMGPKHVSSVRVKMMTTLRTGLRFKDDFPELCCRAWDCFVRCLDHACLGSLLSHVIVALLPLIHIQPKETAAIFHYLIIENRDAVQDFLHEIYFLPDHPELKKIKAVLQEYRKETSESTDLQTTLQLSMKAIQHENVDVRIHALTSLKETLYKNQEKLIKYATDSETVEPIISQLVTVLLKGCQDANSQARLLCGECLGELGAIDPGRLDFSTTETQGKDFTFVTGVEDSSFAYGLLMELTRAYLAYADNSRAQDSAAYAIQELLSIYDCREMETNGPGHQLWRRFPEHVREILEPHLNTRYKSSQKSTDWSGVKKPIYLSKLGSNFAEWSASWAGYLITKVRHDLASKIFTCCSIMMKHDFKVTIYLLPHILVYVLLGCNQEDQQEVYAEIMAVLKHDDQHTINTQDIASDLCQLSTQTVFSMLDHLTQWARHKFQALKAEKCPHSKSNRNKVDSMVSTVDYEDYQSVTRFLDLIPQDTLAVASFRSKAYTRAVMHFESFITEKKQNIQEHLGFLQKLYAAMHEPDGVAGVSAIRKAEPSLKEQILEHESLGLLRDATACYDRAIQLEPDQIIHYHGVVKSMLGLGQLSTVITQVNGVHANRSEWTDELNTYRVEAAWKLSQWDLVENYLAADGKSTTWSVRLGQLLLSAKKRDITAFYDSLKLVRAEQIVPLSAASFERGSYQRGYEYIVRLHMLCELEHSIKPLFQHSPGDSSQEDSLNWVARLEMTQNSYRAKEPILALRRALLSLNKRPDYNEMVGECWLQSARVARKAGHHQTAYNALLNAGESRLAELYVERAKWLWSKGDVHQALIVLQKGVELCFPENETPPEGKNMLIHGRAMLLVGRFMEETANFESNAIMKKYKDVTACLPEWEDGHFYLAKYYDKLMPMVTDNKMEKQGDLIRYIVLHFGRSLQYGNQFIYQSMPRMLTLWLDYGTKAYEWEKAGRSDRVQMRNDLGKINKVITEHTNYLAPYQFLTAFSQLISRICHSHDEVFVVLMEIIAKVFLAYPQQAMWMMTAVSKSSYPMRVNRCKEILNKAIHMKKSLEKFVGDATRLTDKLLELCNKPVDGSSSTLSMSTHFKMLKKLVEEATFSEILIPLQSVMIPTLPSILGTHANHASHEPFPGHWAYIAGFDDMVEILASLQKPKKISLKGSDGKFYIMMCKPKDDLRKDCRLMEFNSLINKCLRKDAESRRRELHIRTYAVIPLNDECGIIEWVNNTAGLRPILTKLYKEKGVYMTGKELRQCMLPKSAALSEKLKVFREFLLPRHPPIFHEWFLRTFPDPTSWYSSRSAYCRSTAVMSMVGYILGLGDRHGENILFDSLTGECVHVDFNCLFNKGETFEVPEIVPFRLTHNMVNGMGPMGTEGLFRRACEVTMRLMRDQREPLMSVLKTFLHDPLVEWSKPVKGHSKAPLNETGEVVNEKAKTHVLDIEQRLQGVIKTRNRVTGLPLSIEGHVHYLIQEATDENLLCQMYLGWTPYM
Sequence of mTOR (P42345 1360-2549): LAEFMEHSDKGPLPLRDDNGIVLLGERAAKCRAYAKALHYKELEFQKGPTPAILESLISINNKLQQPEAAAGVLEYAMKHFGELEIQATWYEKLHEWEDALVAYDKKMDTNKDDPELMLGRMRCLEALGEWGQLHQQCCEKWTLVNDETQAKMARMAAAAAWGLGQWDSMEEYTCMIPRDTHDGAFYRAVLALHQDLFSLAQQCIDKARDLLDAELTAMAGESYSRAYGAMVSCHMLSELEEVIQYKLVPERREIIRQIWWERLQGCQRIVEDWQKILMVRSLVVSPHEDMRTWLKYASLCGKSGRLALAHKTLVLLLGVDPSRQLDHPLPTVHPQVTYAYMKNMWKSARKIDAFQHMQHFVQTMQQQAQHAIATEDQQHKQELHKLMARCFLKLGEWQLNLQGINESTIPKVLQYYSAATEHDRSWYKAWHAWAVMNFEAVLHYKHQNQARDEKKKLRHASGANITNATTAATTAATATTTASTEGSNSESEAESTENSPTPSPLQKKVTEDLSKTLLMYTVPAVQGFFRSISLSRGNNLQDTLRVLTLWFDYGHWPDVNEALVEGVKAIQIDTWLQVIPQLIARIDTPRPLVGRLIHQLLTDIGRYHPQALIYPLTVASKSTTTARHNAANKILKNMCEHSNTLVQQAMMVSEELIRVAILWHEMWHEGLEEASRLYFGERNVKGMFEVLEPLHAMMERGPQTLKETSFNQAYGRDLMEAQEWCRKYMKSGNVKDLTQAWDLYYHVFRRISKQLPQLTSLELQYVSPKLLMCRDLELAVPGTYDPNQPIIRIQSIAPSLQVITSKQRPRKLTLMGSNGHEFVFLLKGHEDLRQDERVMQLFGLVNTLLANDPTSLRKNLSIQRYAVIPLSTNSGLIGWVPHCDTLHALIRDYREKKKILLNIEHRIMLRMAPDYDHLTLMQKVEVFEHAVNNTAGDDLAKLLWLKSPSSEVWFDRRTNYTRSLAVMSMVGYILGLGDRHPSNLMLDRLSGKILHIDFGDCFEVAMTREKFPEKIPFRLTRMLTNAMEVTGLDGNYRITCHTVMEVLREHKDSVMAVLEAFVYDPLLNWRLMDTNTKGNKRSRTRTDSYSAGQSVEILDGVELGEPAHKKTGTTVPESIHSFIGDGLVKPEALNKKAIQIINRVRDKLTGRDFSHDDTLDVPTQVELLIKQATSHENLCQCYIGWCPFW

Compound | IC50 (PI3K (p110α/p85α)) | IC50 (DNA-PK) | EC50 (ATR; hydroxyurea […]) | IC50 (mTOR) | EC50 (ATR; hydroxyurea 2.5 mM)
CNc1nc2ccc(F)cc2n1-c1nc2c(c(C(C)(C)S(C)(=O)=O)n1)OC[C@@H]1COCCN21 [Example 83] | 12.2 µM | 3.11 µM | 100 to 1000 nM | 2470 nM | 
CC(C)(c1nc(-c2ccc(F)c3[nH]ccc23)nc2c1OC[C@@H]1COCCN21)S(C)(=O)=O [Example 102] | 50 µM | 0.1 µM |  | 1820 nM | > 1000 nM
CS(=O)(=O)C1(c2nc(-c3cccc4[nH]ccc34)nc3c2OC[C@@H]2COCCN32)CC1 [Example 6] | 4.5 µM | 4.52 µM |  | 558 nM | 100 to 1000 nM
CC(C)(c1nc(-n2c(N3CCOCC3)nc3ccccc32)nc2c1OC[C@@H]1COCCN21)S(C)(=O)=O [Example 73] | 50 µM | 10 µM | > 1000 nM | 10000 nM | 
CNc1nc2ccc(F)cc2n1-c1nc2c(c(C3(S(C)(=O)=O)CCC3)n1)OC[C@@H]1COCCN21 [Example 97] | 50 µM | 6.8 µM | 100 to 1000 nM | 6800 nM | 
COc1cc(-c2nc3c(c(C4(S(C)(=O)=O)CCOCC4)n2)OC[C@@H]2COCCN32)c2cc[nH]c2c1 [Example 29] | 3.8 µM | 25 µM |  | 435 nM | < 100 nM
CS(=O)(=O)C1(c2nc(-c3cc(C(F)(F)F)cc4[nH]ccc34)nc3c2OC[C@@H]2COCCN32)CCC1 [Example 112] | 19.5 µM | 10 µM |  | 235 nM | 100 to 1000 nM
COc1cc(-c2nc3c(c(C(C)(C)O)n2)OC[C@@H]2COCCN32)c2cc[nH]c2c1 [Example 46] | 0.48 µM | 2.82 µM |  | 38 nM | 100 to 1000 nM
CS(=O)(=O)C1(c2nc(-c3cc(F)cc4[nH]ccc34)nc3c2OC[C@@H]2COCCN32)CCC1 [Example 77] | 5.36 µM | 10 µM |  | > 10000 nM | < 100 nM
COc1cc(-c2nc3c(c(C4(S(C)(=O)=O)CC4)n2)OC[C@@H]2COCCN32)c2cc[nH]c2c1 [Example 75] | 2.52 µM | 1.83 µM |  | 93 nM | 100 to 1000 nM
CC(C)(c1nc(-c2c(F)ccc3[nH]ccc23)nc2c1OC[C@H]1COCCN21)S(C)(=O)=O [Example 26] | 2.7 µM | 10 µM |  | 10000 nM | > 1000 nM
CS(=O)(=O)C1(c2nc(-c3cc(F)cc4[nH]ccc34)nc3c2OC[C@@H]2COCCN32)CC1 [Example 74] | 2.24 µM | 0.989 µM |  | 152 nM | 100 to 1000 nM
CS(=O)(=O)C1(c2nc(-c3ccc(F)c4[nH]ccc34)nc3c2OC[C@@H]2COCCN32)CC1 [Example 110] | 50 µM | 10 µM |  | 10000 nM | > 1000 nM
Cc1cc2c(-c3nc4c(c(C(C)(C)S(C)(=O)=O)n3)OC[C@@H]3COCCN43)cccc2[nH]1 [Example 103] | 3.16 µM | 10 µM |  | 58 nM | 100 to 1000 nM
CC(C)(c1nc(-c2cc(C(F)(F)F)cc3[nH]ccc23)nc2c1OC[C@@H]1COCCN21)S(C)(=O)=O [Example 101] | 12.6 µM | 10 µM |  | 227 nM | 100 to 1000 nM
CS(=O)(=O)C1(c2nc(-c3cc(C(F)(F)F)cc4[nH]ccc34)nc3c2OC[C@@H]2COCCN32)CC1 [Example 108] | 15.4 µM | 1.75 µM |  | 579 nM | 100 to 1000 nM
CC(C)(c1nc(-c2cccc3[nH]ccc23)nc2c1OC[C@H]1COCCN21)S(C)(=O)=O [Example 15] | 1.1 µM | 2.86 µM |  | 851 nM | 100 to 1000 nM
CS(=O)(=O)C1(c2nc(-c3ccnc4[nH]ccc34)nc3c2OC[C@@H]2COCCN32)CCOCC1 [Example 30] | 2.5 µM | 25 µM |  | 4680 nM | 100 to 1000 nM
CNc1nc2ccccc2n1-c1nc2c(c(C(C)(C)S(C)(=O)=O)n1)OCC[C@@H]1COCCN21 [Example 62] | 16.2 µM | 10 µM |  | 6600 nM | 100 to 1000 nM
CC(C)(O)c1nc(-c2cccc3[nH]ccc23)nc2c1OC[C@@H]1COCCN21 [Example 44] | 1.18 µM | 3.06 µM |  | 44 nM | 100 to 1000 nM
CNc1nc2cc(F)ccc2n1-c1nc2c(c(C(C)(C)S(C)(=O)=O)n1)OC[C@@H]1COCCN21 [Example 82] | 5.6 µM | 10 µM | 100 to 1000 nM | 1590 nM | 
CS(=O)(=O)C1(c2nc(-c3cccc4[nH]ccc34)nc3c2OCC[C@H]2COCCN32)CCOCC1 [Example 23] | 50 µM | 6.37 µM |  | 10000 nM | 100 to 1000 nM
CNc1nc2ccc(C#N)cc2n1-c1nc2c(c(C(C)(C)S(C)(=O)=O)n1)OC[C@@H]1COCCN21 [Example 114] | 50 µM | 10 µM | > 1000 nM | 10000 nM | 
CNc1nc2ccccc2n1-c1nc2c(c(C3(S(C)(=O)=O)CC3)n1)OC[C@@H]1COCCN21 [Example 66] | 7.17 µM | 2.41 µM |  | 854 nM | 100 to 1000 nM
Cc1cc2c(-c3nc4c(c(C5(S(C)(=O)=O)CC5)n3)OC[C@@H]3COCCN43)cccc2[nH]1 [Example 109] | 5.69 µM | 10 µM |  | 224 nM | 100 to 1000 nM
CC(C)(c1nc(-c2cccc3[nH]ccc23)nc2c1OC[C@@H]1COCCN21)S(=O)(=O)C1CC1 [Example 61] | 3.22 µM | 10 µM |  | 228 nM | 100 to 1000 nM
CS(=O)(=O)C1(c2nc(-c3ccc(F)c4[nH]ccc34)nc3c2OC[C@@H]2COCCN32)CCOCC1 [Example 106] | 50 µM | 1.16 µM |  | 10000 nM | > 1000 nM
CS(=O)(=O)C1(c2nc(-c3cc(C(F)(F)F)cc4[nH]ccc34)nc3c2OC[C@@H]2COCCN32)CCOCC1 [Example 105] | 28.9 µM | 10 µM |  | 1990 nM | 100 to 1000 nM
CS(=O)(=O)C1(c2nc(-c3cc(F)cc4[nH]ccc34)nc3c2OC[C@@H]2COCCN32)CCOCC1 [Example 28] | 4.7 µM | 25 µM |  | 785 nM | < 100 nM
